Experimental data: US20030125234A1, “Alteration of protein stability” (priority 2001, published 2003)
Residues, ends and D or L forms follow the SMILES beside them.

Key:
[1] = biological target: human acidic fibroblast growth factor (FGF-1) (Homo sapiens, UniProt P05230); assay: FGF-1 thermal aggregation (turbidity at 360 nm); assay type: biochemical; settings: for inhibition index: FGF-1 50 μg/mL, 50° C., standard deviation in parenthesis
Method: (§1) Bovine insulin [Sigma, St. Louis, Mo., USA] was dissolved in phosphate saline (PBS) (50 mM sodium biphosphate, 100 mM sodium chloride), pH 7.0, bovine alpha-lactalbumin [Sigma] in 50 mM sodium phosphate, 100 mM sodium chloride and 2 mM EDTA, pH 6.2, chicken egg white lysozyme [Sigma] in 100 mM Tris, 1 mM EDTA, pH 8.2, human acidic fibroblast growth factor (FGF-1) in 6.2 mM sodium biphosphate, 120 mM sodium chloride, pH 7.2, porcine somatotropin (pST) [provided by Pfizer, Inc., Groton, Conn., USA] in 10 mM phosphate, pH 6. 1, human apolactoferrin (HLF) [Sigma] in 20 mM HEPES, 154 mM NaCl, pH 7.4, porcine heart citrate synthase (CS) in 40 mM HEPES, 50 mM KCl, 10 mM (NH4)2SO4 mM potassium acetate, pH 7.8, and yeast alcohol dehydrogenase (ADH) [Sigma] in pH 7.0 PBS. Selection of buffer solutions was based on an extensive series of preliminary studies to obtain appropriate insolubilization kinetics as described below.
(§2) The following compounds were obtained from Sigma and used without further purification: oxalic acid, sodium malonate, succinic acid, glutaric acid, adipic acid, pimelic acid, suberic acid, azelaic acid, guanidine hydrochloride, ammonium formate, beta-alanine, 4-aminobutyric acid, 5-aminovaleric acid, 6-aminocaproic acid, 7-aminoheptanoic acid, hydrazine, ethylenediamine, 1,3-diaminopropane, 1,4-diaminobutane, 1,5-diaminopentane, 1,6-diaminohexane, 1,7-diaminoheptane, Glu-Glu, Glu-Lys, Lys-Lys, diglycine, triglycine, tetraglycine, pentaglycine, and hexaglycine. […] Triglycine and tetraglycine were dissolved in pH 8.6 PBS, while pentaglycine and hexaglycine were dissolved in pH 10.6 PBS.
(§3) Each was either dissolved in pH 7.0 PBS, or pH 6.1 10 mM phosphate, and adjusted to the same pH.
(§4) Protein aggregation was monitored for 1 hour at 360 nm using an HP8453 UV-visible spectrophotometer system [Hewlett Packard, Germany]. […] Insulin (0.25 mg/mL (4.39E-5 M)) aggregation was monitored at 25° C. after addition of potential inhibitors and 20 μL of 1 M DTT (1.27E-4 M). Alpha-lactabumin (0.4 mg/mL (2.82E-5 M)) aggregation was monitored at 37° C. in the presence of 20 μL of 1 M DTT (1.27E-4 M). Lysozyme (0.4 mg/mL (2.86E-5 M)) aggregation was monitored at 25° C. in the presence of 20 μL of 1 M DTT (1.27E-4 M). FGF-1 (50 μg/mL (3.12E-6 M)) aggregation was monitored at 50° C. Porcine somatotropin (1.27 mg/mL (5.76E-5 M)) aggregation was monitored at 60° C. in the presence of PEG 8000 (20 mg/mL) which was included to enhance the protein association process through a simple exclusion volume effect. HLF (0.4 mg/mL (5.23E-6 M)) aggregation was monitored at 43° C. in the presence of 1.27E-4 M DTT. Citrate synthase (96 μg/mL (9.80E-7 M)) aggregation was monitored at45° C. ADH (1 mg/mL (7.14E-6 M)) was monitored at 37° C. following the addition of 7.76E-5 M Cu(OP)2. Aggregation was compared to protein in the absence of the particular dipolar compound. After stirring, experiments were initiated by the addition of proteins followed by stressing reagents to 1 cm pathlength cuvettes employing a seven-position thermostatted sample holder that was cycled at 30-second intervals. Alternatively, a microtiter plate reader was employed under the same conditions in a 96 well format.
(§5) All optical density (OD)360nm versus time results were exported into Excel [Microsoft] for data analysis. […] The maximum rate of change in OD versus time plots (r) was used to determine the rate of the reaction from the slope at this point.

[2] = biological target: T1, porcine heart citrate synthase (CS) (Sus scrofa, UniProt P00889); assay: Citrate synthase thermal aggregation (turbidity at 360 nm); assay type: biochemical; settings: for inhibition index: CS 96 μg/mL, 45° C., standard deviation in parenthesis
T1 construct: porcine heart citrate synthase (CS); from tissue; host or cells: porcine heart
T1 sequence (P00889 28-464): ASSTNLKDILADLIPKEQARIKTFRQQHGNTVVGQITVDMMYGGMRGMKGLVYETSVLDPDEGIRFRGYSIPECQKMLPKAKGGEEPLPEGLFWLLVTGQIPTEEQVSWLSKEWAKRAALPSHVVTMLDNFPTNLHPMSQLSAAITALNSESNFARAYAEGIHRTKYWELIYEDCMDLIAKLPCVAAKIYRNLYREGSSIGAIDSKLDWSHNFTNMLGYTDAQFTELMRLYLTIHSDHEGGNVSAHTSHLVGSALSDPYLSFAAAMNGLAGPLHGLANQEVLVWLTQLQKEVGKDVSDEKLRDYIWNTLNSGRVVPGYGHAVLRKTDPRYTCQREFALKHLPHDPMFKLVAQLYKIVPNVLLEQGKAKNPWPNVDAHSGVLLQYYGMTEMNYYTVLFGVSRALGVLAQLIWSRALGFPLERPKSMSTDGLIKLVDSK
Method: as §1, §2, §3, §4, §5

Sequence of human acidic fibroblast growth factor (FGF-1) (P05230 whole entry): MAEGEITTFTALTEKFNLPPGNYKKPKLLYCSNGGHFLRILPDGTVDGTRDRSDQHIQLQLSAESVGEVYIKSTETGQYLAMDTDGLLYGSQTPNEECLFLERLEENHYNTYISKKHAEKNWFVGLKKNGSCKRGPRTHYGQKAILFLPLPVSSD

| Compound | inhibition index ([1]; compound 1,000×) | inhibition index ([1]; compound 10,000×) | inhibition index ([2]; compound 10,000X) | inhibition index ([2]; compound 50,000X) | inhibition of FGF-1 aggregation, in words ([1]; text and FIG. 2 (1,000X to 50,000X)) | inhibition of citrate synthase aggregation, in words [2] | inhibition index ([2]; compound 1,000X) |
| --- | --- | --- | --- | --- | --- | --- | --- |
| NCCCN [1,3-diaminopropane] | 2.2 (0.3) | 3.5 (2.3) | 0.7 (0.3) | 7.7 | – | – | – |
| NCCCCN [1,4-diaminobutane] | 2.5 (1.3) | 33.7 (6.6) | 0.9 (0.3) | 4.0 (2.3) | – | – | – |
| NCCCCCN [1,5-diaminopentane] | 3.3 (0.7) | 46.5 (19.8) | 0.8 (0.2) | 8.3 (4.5) | – | – | – |
| NCCCCCCN [1,6-diaminohexane] | 1.6 (0.6) | 27.0 (9.8) | 0.6 (0.2) | 4.8 (1.5) | – | – | – |
| NCCCCCCCN [1,7-diaminoheptane] | 2.0 (0.7) | 6.2 (2.4) | 0.6 (0.2) | 1.7 (0.7) | – | – | – |
| NCCCC(=O)O [4-aminobuytrate, 4-aminobutyric acid] | 1.5 (0.0) | 1.4 (0.3) | 0.6 (0.1) | 1.2 (0.4) | – | – | – |
| NCCCCC(=O)O [5-aminovalerate, 5-aminovaleric acid] | 1.1 (0.2) | 2.2 (1.4) | 0.7 (0.1) | 1.9 (0.7) | – | – | – |
| NCCCCCC(=O)O [6-aminocaproate, 6-aminocaproic acid] | 2.2 (0.3) | 2.4 (0.5) | 0.5 (0.1) | 1.5 (0.8) | – | – | – |
| NCCCCCCC(=O)O [7-aminoheptanoate, 7-aminoheptanoic acid] | 0.9 (0.4) | 1.3 (0.1) | 0.5 (0.1) | 1.7 (0.4) | – | – | – |
| O=C(O)CCCCC(=O)O [adipate, adipic acid] | 3.0 (0.7) | 5.0 (3.3) | 1.2 (0.5) | 19.6 (17.1) | – | – | – |
| NCCC(=O)O [beta-alanine] | 1.1 (0.2) | 1.5 (0.5) | 0.6 (0.1) | 1.9 (0.8) | – | – | – |
| NCCN [ethylenediamine] | 2.2 (0.7) | 3.3 (1.3) | 1.8 (0.5) | 18.5 | – | – | – |
| O=C(O)CCCC(=O)O [glutarate, glutaric acid] | 3.0 (0.9) | 10.8 (8.4) | 1.4 (0.5) | 6.5 (0.3) | – | – | – |
| NCC(=O)O [glycine] | 1.3 (0.3) | 3.0 (1.7) | 0.8 (0.2) | – | – | – | – |
| O=C([O-])CC(=O)[O-].[Na+].[Na+] [malonate, sodium malonate] | 2.2 (0.4) | 36.6 (29.0) | 2.4 (0.5) | 9 | – | – | – |
| O=C(O)C(=O)O [oxalate, oxalic acid] | 5.2 (1.5) | 605.5 (89.1) | 1.9 (0.5) | 6.2 (3.8) | effective inhibitors | – | – |
| O=C(O)CCCCCC(=O)O [pimelate, pimelic acid] | 3.1 (1.0) | 12.1 (8.8) | 1.4 (0.4) | 6.7 (0.1) | – | – | – |
| O=C(O)CCCCCCC(=O)O [suberate, suberic acid] | 2.3 (0.5) | 7.1 (5.4) | 1.1 (0.2) | 14.1 (2.1) | – | – | – |
| O=C(O)CCC(=O)O [succinate, succinic acid] | 2.1 (0.4) | 9.2 (1.9) | 2.1 (0.5) | 9.6 | – | – | – |
| NCC(=O)NCC(=O)NCC(=O)O [triglycine] (H-Gly-Gly-Gly-OH) | 2.2 (1.1) | 3.1 (0.9) | 0.7 (0.2) | 1.0 | – | Potent inhibitors | 1.0 (0.2) |
| Glu-Glu | 1.3 (0.2) | 7.1 (2.7) | 1.5 (0.1) | 1430.3 | – | Potent inhibitors | 0.8 (0.1) |
| Lys-Lys | 1.1 (0.1) | 3.1 (0.8) | 1.6 (0.3) | 86.8 | – | – | 0.9 (0.1) |
| diglycine | 1.0 (0.1) | 1.2 (0.4) | 0.9 (0.3) | 1.5 (0.2) | – | Potent inhibitors | 0.8 (0.1) |
| pentaglycine | – | – | – | – | – | – | 0.6 (0.2) |
| tetraglycine | 3.8 (0.8) | – | – | – | – | – | 1.5 (0.1) |
